According to ChEMBL document CHEMBL1201862, “PubChem BioAssay data set” (2004):
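Briefly, cells in 96-well plates were exposed to five compound concentrations for 48 h, and endpoints were estimated by linear interpolation. At the GI50, growth is halved.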 The source made the active and inactive calls. Rule as the data show it: active = GI50 up to about 1.1 µM and inactive = higher.

Tests used:
Assay in all cases: inhibition of tumour cell growth, NCI panel, 48 h
HL-60 = system: HL-60
HCT-116 = system: HCT-116
RXF 393 = system: RXF 393
T47D = system: T47D
Malme-3M = system: Malme-3M
DU-145 = system: DU-145
SR = system: SR
SF-268 = system: SF-268
KM12 = system: KM12
SNB-75 = system: SNB-75
UO-31 = system: UO-31
COLO 205 = system: COLO 205
MDA-MB-435 = system: MDA-MB-435
LOX IMVI = system: LOX IMVI
SF-295 = system: SF-295
EKVX = system: EKVX
HOP-62 = system: HOP-62
MDA-N = system: MDA-N
SN12C = system: SN12C
NCI-H23 = system: NCI-H23
CCRF-CEM = system: CCRF-CEM
CAKI-1 = system: CAKI-1
IGROV-1 = system: IGROV-1
HT-29 = system: HT-29
NCI/ADR-RES = system: NCI/ADR-RES
BT-549 = system: BT-549
OVCAR-5 = system: OVCAR-5
786-0 = system: 786-0
M14 = system: M14
A549 = system: A549
SNB-19 = system: SNB-19
MOLT-4 = system: MOLT-4
HCT-15 = system: HCT-15
HOP-92 = system: HOP-92
OVCAR-3 = system: OVCAR-3
SK-OV-3 = system: SK-OV-3
OVCAR-4 = system: OVCAR-4
Hs-578T = system: Hs-578T
OVCAR-8 = system: OVCAR-8
RPMI-8226 = system: RPMI-8226
K562 = system: K562
SW-620 = system: SW-620
SK-MEL-2 = system: SK-MEL-2
SK-MEL-5 = system: SK-MEL-5
TK-10 = system: TK-10
SF-539 = system: SF-539
MDA-MB-231 = system: MDA-MB-231
U-251 = system: U-251
NCI-H522 = system: NCI-H522
PC-3 = system: PC-3
HCC 2998 = system: HCC 2998
UACC-62 = system: UACC-62
UACC-257 = system: UACC-257
NCI-H226 = system: NCI-H226
ACHN = system: ACHN
NCI-H460 = system: NCI-H460
SK-MEL-28 = system: SK-MEL-28
MCF7 = system: MCF7
A498 = system: A498

Measured: GI50

O=c1[nH]nc(-c2ccccc2)c2[nH]c(-c3ccccc3)cc12
inactive: HL-60 > 100 µM | HCT-116 > 100 µM | RXF 393 > 100 µM | T47D 25.5 µM | Malme-3M > 100 µM | DU-145 > 100 µM | SR 38.8 µM | SF-268 > 100 µM | KM12 > 100 µM | SNB-75 45.8 µM | UO-31 > 100 µM | COLO 205 > 100 µM | MDA-MB-435 > 100 µM | LOX IMVI > 100 µM | SF-295 > 100 µM | EKVX > 100 µM | HOP-62 > 100 µM | MDA-N > 100 µM | SN12C > 100 µM | NCI-H23 > 100 µM | CCRF-CEM > 100 µM | CAKI-1 > 100 µM | IGROV-1 > 100 µM | HT-29 12.2 µM | NCI/ADR-RES > 100 µM | BT-549 > 100 µM | OVCAR-5 > 100 µM | 786-0 > 100 µM | M14 > 100 µM | A549 > 100 µM | SNB-19 > 100 µM | MOLT-4 39 µM | HOP-92 > 100 µM | OVCAR-3 > 100 µM | SK-OV-3 > 100 µM | OVCAR-4 > 100 µM | Hs-578T > 100 µM | OVCAR-8 > 100 µM | RPMI-8226 88.3 µM | K562 50.8 µM | SW-620 > 100 µM
68.5 µM: HCT-15

COc1ccc2c(c1)[n+]([O-])c(C#N)c(N1CCN(c3ccc([N+](=O)[O-])cc3)CC1)[n+]2[O-]
3.16 µM: HCT-15
inactive: HL-60 5.42 µM | HCT-116 3.66 µM | RXF 393 6.89 µM | T47D 2.01 µM | Malme-3M 2.64 µM | DU-145 8.22 µM | SF-268 2.91 µM | KM12 6.87 µM | SNB-75 8.53 µM | SK-MEL-2 > 57.4 µM | COLO 205 2.24 µM | MDA-MB-435 5.13 µM | LOX IMVI 2.36 µM | SK-MEL-5 3.59 µM | TK-10 9.68 µM | SF-295 3.77 µM | EKVX 2.74 µM | HOP-62 4.24 µM | MDA-N 7.35 µM | SF-539 2.21 µM | MDA-MB-231 5.31 µM | SN12C 6.37 µM | NCI-H23 3.23 µM | CCRF-CEM 1.92 µM | CAKI-1 6 µM | IGROV-1 1.49 µM | HT-29 > 22.4 µM | NCI/ADR-RES 2.45 µM | BT-549 3.69 µM | OVCAR-5 7.1 µM | 786-0 8.63 µM | M14 4.52 µM | U-251 2.41 µM | NCI-H522 1.81 µM | A549 3.08 µM | PC-3 3.34 µM | SNB-19 5.22 µM | HCC 2998 > 100 µM | UACC-62 3.76 µM | OVCAR-3 9.91 µM | SK-OV-3 8.09 µM | OVCAR-4 3.94 µM | UACC-257 4.42 µM | NCI-H226 10.7 µM | Hs-578T 2.55 µM | ACHN 2.7 µM | OVCAR-8 2.09 µM | K562 1.45 µM | NCI-H460 3.63 µM | SW-620 5.55 µM | SK-MEL-28 16.3 µM
active: SR 0.41 µM | UO-31 < 0.01 µM

O/N=C1/C2CC3CC1(c1ccccc1)CC(/C3=N/O)/C2=N\O (stereo not given)
> 100 µM: HCT-15
inactive: HL-60 > 100 µM | HCT-116 > 100 µM | RXF 393 > 100 µM | MCF7 > 100 µM | T47D > 100 µM | Malme-3M > 100 µM | DU-145 > 100 µM | SR > 100 µM | KM12 > 100 µM | SNB-75 > 100 µM | SK-MEL-2 > 100 µM | UO-31 > 100 µM | COLO 205 > 100 µM | MDA-MB-435 > 100 µM | LOX IMVI > 100 µM | SK-MEL-5 > 100 µM | TK-10 > 100 µM | SF-295 > 100 µM | EKVX > 100 µM | HOP-62 > 100 µM | MDA-N > 100 µM | SF-539 > 100 µM | MDA-MB-231 > 100 µM | SN12C > 100 µM | A498 > 100 µM | NCI-H23 > 100 µM | CCRF-CEM > 100 µM | CAKI-1 > 100 µM | HT-29 > 100 µM | BT-549 > 100 µM | OVCAR-5 > 100 µM | 786-0 > 100 µM | M14 > 100 µM | U-251 > 100 µM | NCI-H522 > 100 µM | A549 > 100 µM | PC-3 95.9 µM | SNB-19 > 100 µM | MOLT-4 > 100 µM | HCC 2998 > 100 µM | UACC-62 > 100 µM | OVCAR-3 > 100 µM | SK-OV-3 > 100 µM | OVCAR-4 > 100 µM | UACC-257 > 100 µM | NCI-H226 > 100 µM | Hs-578T > 100 µM | ACHN > 100 µM | OVCAR-8 > 100 µM | RPMI-8226 > 100 µM | K562 > 100 µM | NCI-H460 > 100 µM | SW-620 > 100 µM | SK-MEL-28 > 100 µM

CC(=O)OCCN(C1=NCCN1)/[N+](C=c1ccc(=C=[N-])cc1)=C/c1ccc(C#N)cc1
inactive: HCT-116 > 100 µM | RXF 393 > 100 µM | MCF7 > 100 µM | T47D > 100 µM | Malme-3M > 100 µM | SR > 100 µM | SF-268 > 100 µM | KM12 > 100 µM | SNB-75 > 100 µM | SK-MEL-2 > 100 µM | UO-31 > 100 µM | COLO 205 > 100 µM | MDA-MB-435 > 100 µM | LOX IMVI > 100 µM | SK-MEL-5 > 100 µM | TK-10 > 100 µM | SF-295 > 100 µM | EKVX > 100 µM | HOP-62 > 100 µM | MDA-N > 100 µM | SF-539 > 100 µM | MDA-MB-231 > 100 µM | SN12C > 100 µM | NCI-H23 > 100 µM | CCRF-CEM > 100 µM | CAKI-1 > 100 µM | IGROV-1 > 100 µM | HT-29 > 100 µM | NCI/ADR-RES 94.6 µM | BT-549 > 100 µM | OVCAR-5 > 100 µM | 786-0 > 100 µM | M14 > 100 µM | U-251 > 100 µM | NCI-H522 > 100 µM | A549 > 100 µM | PC-3 > 100 µM | SNB-19 > 100 µM | MOLT-4 > 100 µM | HCC 2998 > 100 µM | UACC-62 > 100 µM | OVCAR-3 > 100 µM | SK-OV-3 > 100 µM | OVCAR-4 > 100 µM | UACC-257 > 100 µM | NCI-H226 > 100 µM | Hs-578T > 100 µM | ACHN > 100 µM | OVCAR-8 > 100 µM | K562 > 100 µM | NCI-H460 > 100 µM | SW-620 > 100 µM | SK-MEL-28 > 100 µM
> 100 µM: HCT-15
